Experiment [1] deals with B. henselae and B. vinsonii. The experiment can be described thus: Live/dead BacLight staining. The format is cell-based, Bartonella. The following applies: 10 μg/ml. As to the method:
To determine the viability of the bacteria grown in liquid culture media, LIVE/DEAD BacLight™ Bacterial viability kit for microscopy (ThermoFisher, L7012) was used according to the manufacturer's protocol. Briefly, 7-day old liquid culture media was used for the determination of the viability. Initially, bacteria were diluted down to an optical density (OD) of 0.1 using the respective liquid culture media. 1 ml of 0.1 OD bacterial culture was then transferred into a 2 ml microcentrifuge tube and centrifuged at 7000 rpm for 10 min. After removing the supernatant, the pellet was resuspended in 1 ml of 0.85% NaCl and bacteria was pelleted again. After three washes, bacteria were resuspended in 1 ml of 0.85% NaCl and incubated with 1 μl of green-fluorescent nucleic acid dye (SYTO9) and 1 μl of red-fluorescent nucleic acid dye (PI) for 15 minutes. All the incubations were performed at room temperature and in the dark. After 15 minutes of incubation with both the dyes, bacteria were visualized under fluorescence microscopy and images were acquired using Nikon NIS elements software. Later, mean fluorescence intensity of both the SYTO9 and PI was measured using the Nikon elements software. Mean fluorescence values were acquired from a total of 10 images per experimental condition. To obtain dead cell counts, bacteria were treated with 70% isopropanol and incubated for 1 hr, while the sample was mixed for every 15 min and stained as above. Additionally, the entire staining protocol was repeated by staining the bacteria with PI first and then with SYTO9 both on dead and live bacteria and the fluorescence values were recorded accordingly. However, in the staining of therapeutic agent treated bacteria, both the dyes were pre-mixed into 1 ml of sterile-filtered distilled water, as previously described and 10 μl of the mixture was added into each well, incubated and visualized as described above.
Bacteria were stained with the live/dead BacLight™ kit to determine the viability of the bacteria before every experiment. […] Viability was also measured after 96 hours on control, untreated bacteria. […]

The test system of experiment [2] is intracellular B. henselae in DH82 cells. The experiment can be described thus: DH82 cell-based MBC assay (coculture). The following applies: for MBC: B. henselae, DH82 cell-based assay, 96 hours; for effect of individual therapeutic agent on B. henselae growth: DH82 cell-based system, 16 μg/ml, agents used individually. The arrangement: species or system Bartonella henselae (canine DH82 cells). As to the method: DH82 are a canine cell line having a macrophage-like morphology. Cells were initially cultured in T75-Flasks (Corning, 430641U) until confluency was reached and were split at a ratio of 1:4 for every 2-3 days. Cells were then seeded into either 24-well cell culture plates (Corning, 3526) for coculture assay or 8-well chamber slides (Millipore #PEGGS0816) for immunofluorescence assays. A total of 50,000 cells were seeded into each well of a 24-well plate or per chamber of an 8-well chamber slide with EMEM with 15% FBS and incubated for 24-48 hours before infections.
Therapeutic agent stocks were prepared in the following solvents: 10 mg/ml of ceftriaxone (USP), doxycycline (Fisher scientific, D9891-1G), gentamicin (Fisher scientific, 1405-41-0), ampicillin (Fisher scientific, 69-52-3) and azlocillin (Flightpath) in sterile cell culture grade water, whereas 5 mg/ml of azithromycin (Sigma, PZ0007-5MG) was dissolved in sterile cell culture grade DMSO. Antibiotics were then aliquoted and stored at either −80° C. or −20° C. until further use. On the day of assay, these stock concentrations were diluted to 1 mg/ml and 100 μg/ml in the respected bacterial culture media for MIC and cell-free, liquid culture MBC assays. For the DH82 cell-based MBC assay, antibiotics were diluted in EMEM media supplemented with 15% heat inactivated FBS.
Bacteria (B. henselae) that were grown in Grace's insect media, were centrifuged at 7000 rpm for 10 min. The supernatant was removed and washed with 1×PBS for three times. After the washes, pellet was resuspended in EMEM media supplemented with 15% heat inactivated FBS. This bacterial suspension was then added to DH82 cells at a multiplicity of infection (MOI) of 1:50 and incubated for 2 hours. After 2 hours, unbound bacteria were removed by washing the cells with only EMEM media 3 times each 15 min wash. Cells were then incubated with EMEM+15% FBS media at 37° C. with 5% CO2 for 48 hours.
After 48 hrs of incubation, the media was removed from the cells and the therapeutic agents that were diluted in EMEM+15% FBS was added. Each therapeutic agent was diluted at 11 different concentrations (16, 8, 4, 2, 1, 0.5, 0.25, 0.125, 0.062, 0.031, 0.0156 μg/ml), as described above and incubated for 96 hours. […] The bactericidal activity of the therapeutic agents were then evaluated by plating the lysed cells on blood agar plates. Briefly, infected DH82 cells were initially washed for 30 min twice to remove the antibiotics that were added. Later, cells were osmotically lysed by adding 1 ml of sterile ice-cold distilled water and incubated for 5 min on ice. The lysed cells were then plated onto blood agar plates and incubated at 37° C. with 5% CO2 for about 10 days to evaluate the growth of viable B. henselae. This experiment was conducted in duplicates and repeated twice with all 6 antibiotics including 11 different concentrations. The untreated infected cells were used as a positive control and untreated uninfected cells served as a negative control. The CFU counts are presented as average±standard deviation.
To evaluate the bactericidal activity and to determine if these antibiotics could penetrate the eukaryotic […], a new DH82 cell-based coculture system was utilized. […] Uninfected cells stained with primary rabbit B. henselaehyperimmunized polyclonal (primary) and goat anti-rabbit IgG Alexa fluor 594 (secondary) antibodies were used as a negative control. As an isotype control, DH82 cells infected with B. henselae and incubated with primary rabbit IgG were used.

Setting [3] is: Bartonella henselae, read-out: MBC.

Where two headings read alike, the source gives them in different places.

A word on the MBC: it is the smallest concentration meeting the test's criterion for killing. For the compound `CO/N=C(\C(=O)N[C@@H]1C(=O)N2C(C(=O)O)=C(CSc3nc(=O)c(=O)[nH]n3C)CS[C@H]12)c1csc(N)n1` [Ceftriaxone, ceftriaxone], the “live/dead staining signal of treated bacteria” value (shortened to “live/dead staining signal”) in experiment [1] is recorded as “showed only SYTO9 signal”. For the same compound, in experiment [2] (setting [3]), the minimal bactericidal concentration (MBC) is > 16 µg/mL.
For the compound `CC1(C)S[C@@H]2[C@H](NC(=O)[C@H](NC(=O)N3CCNC3=O)c3ccccc3)C(=O)N2[C@H]1C(=O)O` [Azlocillin, azlocillin], the “live/dead staining signal” value in experiment [1] was “showed only SYTO9 signal”. Also, the MBC in experiment [2] (setting [3]) is > 16 µg/mL. In addition, the “effect of individual therapeutic agent on B. henselae growth” value in experiment [2] is on record as “showed reduced bacterial growth but were unable to completely inhibit the growth”.
Consider `CC[C@H]1OC(=O)[C@H](C)[C@@H](O[C@H]2C[C@@](C)(OC)[C@@H](O)[C@H](C)O2)[C@H](C)[C@@H](O[C@@H]2O[C@H](C)C[C@H](N(C)C)[C@H]2O)[C@](C)(O)C[C@@H](C)CN(C)[C@H](C)[C@@H](O)[C@]1(C)O` [Azithromycin, azithromycin], for which the “live/dead staining signal” value in experiment [1] was “showed only SYTO9 signal”. Further, in experiment [2] (setting [3]), the MBC is > 16 µg/mL. In addition, the “effect of individual therapeutic agent on B. henselae growth” value in experiment [2] is “showed reduced bacterial growth but were unable to completely inhibit the growth”.
Take gentamicin: in experiment [2], the MBC was >16 µg/mL.
